The nature of one data set: in vitro. Particulars: human, hela cells, % viability.
`Cc1cccc(C)c1NC(=O)c1c(NC(=O)c2ccco2)sc2c1CCC(C)C2` (centres unmarked) [CBK265550]: the viability at 28.5 h, 10 µM stood at 107%.

Take `COc1ccc(-c2c(-c3ccc(O)cc3O)n[nH]c2C)cc1OC` [CBK265552]: the viability at 28.5 h, 10 µM came out at 81.7%.

On to `O=C(c1ccc(F)cc1)c1ccc(CSc2nnc3sc4ccccc4n23)cc1` [CBK265553], for which the viability at 28.5 h, 10 µM was 85.9%.

With `NS(=O)(=O)c1ccc(NC(=O)CSc2nc3sc4c(c3c(=O)[nH]2)CCC4)cc1` [CBK265554], the viability at 28.5 h, 10 µM stood at 103%.

`NC(=O)C1CCN(C2CC(=O)N(c3cccc([N+](=O)[O-])c3)C2=O)CC1` (centres unmarked) [CBK265555]: the viability at 28.5 h, 10 µM came out at 105%.

As for `O=C(O)c1ccc2c(c1)C(=O)N(Cc1cccc(CN3C(=O)c4ccc(C(=O)O)cc4C3=O)c1)C2=O` [CBK265556], the viability at 28.5 h, 10 µM was 113%.

As for `CCCS(=O)(=O)N1CCN(CCN2C(=O)c3cccc4cccc(c34)C2=O)CC1` [CBK265559], the viability at 28.5 h, 10 µM was determined as 81%.

In the case of `CC(CC(=O)O)CC(=O)Nc1ccc(C(=O)O)cc1` (centres unmarked) [CBK265560], the viability at 28.5 h, 10 µM was 103%.

For `COc1ccc(Br)cc1/C=C/C(=O)NC(=S)Nc1cc(C(=O)O)ccc1Cl` [CBK265564], the viability at 28.5 h, 10 µM turned out to be 90.7%.

In the case of `O=C(CCN1C(=O)c2ccccc2C1=O)N(CCO)Cc1ccccc1` [CBK265565], the viability at 28.5 h, 10 µM amounted to 110%.

`O=C(CSCc1nc(O)c2c3c(sc2n1)CCCC3)Nc1ccc(F)cc1` [CBK265568]: the viability at 28.5 h, 10 µM amounted to 106%.

On to `CC(C)n1c(NCc2nc3ccccc3n2C)nc2ccccc21` [CBK265571], for which the viability at 28.5 h, 10 µM amounted to 83.6%.

With `O=C(CN1CCCCC1)Nc1ccc(S(=O)(=O)N2CCOCC2)cc1` [CBK265577], the viability at 28.5 h, 10 µM was found to be 90.2%.

With `O=C(CN1C(=O)c2ccccc2C1=O)Nc1sc2c(c1C(=O)NCC1CCCO1)CCC2` (centres unmarked) [CBK265583], the viability at 28.5 h, 10 µM worked out at 109%.

Consider `COc1ccccc1N(CC(O)CN1C(C)CCCC1C)S(=O)(=O)c1ccccc1` (centres unmarked) [CBK265585], for which the viability at 28.5 h, 10 µM was 94.4%.

Consider `CCOC(=O)COc1cccc(/C=C2/SC(=S)N(c3cccc(C(=O)O)c3)C2=O)c1` [CBK265589], for which the viability at 28.5 h, 10 µM came to 98.3%.

Take `O=C(Nc1ccc(S(=O)(=O)NCCc2ccccc2)cc1)c1ccc2c(c1)OCO2` [CBK265591]: the viability at 28.5 h, 10 µM was determined as 108%.

Turning to `O=C(O)CCCC(=O)Nc1cc([N+](=O)[O-])ccc1O` [CBK265592], the viability at 28.5 h, 10 µM stood at 102%.

For `O=C(/C=C/c1ccccc1[N+](=O)[O-])NCCN1CCOCC1` [CBK265596], the viability at 28.5 h, 10 µM stood at 97.8%.

`Cc1cccc(/N=C2\NC(=O)C(Cc3ccc(C)c(Cl)c3)S2)n1` (centres unmarked) [CBK265597]: the viability at 28.5 h, 10 µM was 106%.

As to `COc1ccccc1C1(CCNCc2ccc3c(c2)OCO3)CCOC(C)(C)C1` (centres unmarked) [CBK265599G], the viability at 28.5 h, 10 µM was 92.3%.

Consider `O=C(CC(CC(=O)c1ccc(Cl)cc1)c1ccccc1C(=O)O)c1ccc(Cl)cc1` [CBK265604], for which the viability at 28.5 h, 10 µM turned out to be 93.6%.

On to `CCN1C(=O)S/C(=C/c2ccc(OCc3cccc(C(=O)O)c3)cc2)C1=O` [CBK265605], for which the viability at 28.5 h, 10 µM was 106%.

With `Cc1ccc(NC(=O)CSc2nc3ccccc3c(=O)n2Cc2ccco2)cc1Cl` [CBK265606], the viability at 28.5 h, 10 µM is 102%.

For the molecule `CC(C)C(C(=O)Nc1ccc(S(=O)(=O)N2CCOCC2)cc1)N1C(=O)c2ccccc2C1=O` (centres unmarked) [CBK265607], the viability at 28.5 h, 10 µM is 97.6%.

With `COc1ccc(-c2nn(-c3ccccc3)cc2/C=C2\SC(N3CC(C)OC(C)C3)=NC2=O)cc1F` (centres unmarked) [CBK265613], the viability at 28.5 h, 10 µM came out at 100%.

On to `COC(=O)c1c(NC(=O)CC2Nc3ccccc3NC2=O)sc2c1CCC(C(C)(C)C)C2` (centres unmarked) [CBK265614], for which the viability at 28.5 h, 10 µM amounted to 98.1%.

Turning to `O=C(O)c1ccc(N2N=C(c3ccccc3)/C(=C\c3cccc([N+](=O)[O-])c3O)C2=O)cc1` [CBK265615], the viability at 28.5 h, 10 µM amounted to 102%.

Turning to `O=C(/C=C/c1ccc(C(=O)Nc2cccnc2)cc1)Nc1cccnc1` [CBK265617], the viability at 28.5 h, 10 µM was 66.7%.

On to `COc1ccc(-n2c(SCCc3ccccc3)nnc2-c2ccncc2)cc1` [CBK265618], for which the viability at 28.5 h, 10 µM amounted to 85.3%.

`CCOC(=O)/C(C(=O)c1ccccc1)=C(/N)NCCO` [CBK265621]: the viability at 28.5 h, 10 µM worked out at 110%.

For `CCOc1cc(/C=C2\S/C(=N/c3ccc(S(N)(=O)=O)cc3)NC2=O)c(Br)cc1O` [CBK265622], the viability at 28.5 h, 10 µM came to 95%.

As for `CC(=O)c1ccc(NC(=O)CC2SC(=N)NC2=O)cc1` (centres unmarked) [CBK265625], the viability at 28.5 h, 10 µM worked out at 83.9%.

In the case of `O=S(=O)(c1cccc2nonc12)N1CCCCCC1` [CBK265627], the viability at 28.5 h, 10 µM worked out at 102%.

Consider `CC(C)(Oc1ccc(Cl)cc1)C(=O)NCCc1ccc(S(N)(=O)=O)cc1` [CBK265628], for which the viability at 28.5 h, 10 µM is 107%.

Consider `Cc1cc(NS(=O)(=O)c2ccc(NC(=O)c3ccc(C(C)(C)C)c(Br)c3)cc2)no1` [CBK265629], for which the viability at 28.5 h, 10 µM amounted to 119%.

For `COc1ccc(-n2c(SCC(=O)O)nnc2-c2cccs2)cc1` [CBK265636], the viability at 28.5 h, 10 µM is 118%.

For `Cc1cc2ccccc2n2c(SCCC(=O)Nc3ccc(C(C)(C)C)cc3)nnc12` [CBK265639], the viability at 28.5 h, 10 µM came to 106%.

Consider `CN(C)c1ccc(NC(=O)CC2S/C(=N/c3ccccc3)N(c3ccccc3)C2=O)cc1` (centres unmarked) [CBK265644], for which the viability at 28.5 h, 10 µM was 92.7%.

Take `CC(CC(=O)O)CC(=O)Nc1cccc(C(=O)O)c1` (centres unmarked) [CBK265651]: the viability at 28.5 h, 10 µM was 99.1%.

In the case of `O=c1cc(-c2cccc([N+](=O)[O-])c2)c2ccc(OCc3cc4c(cc3Cl)OCO4)cc2o1` [CBK265652], the viability at 28.5 h, 10 µM is 92.1%.

For the molecule `CC1CCN(S(=O)(=O)c2ccc(NC(=O)c3cccc(NC(=O)C(C)C)c3)cc2)CC1` [CBK265653], the viability at 28.5 h, 10 µM was found to be 88%.

In the case of `O=C(NCCNC(=O)c1ccccn1)c1ccccn1` [CBK265654], the viability at 28.5 h, 10 µM was 101%.

In the case of `Ic1ccc2ncnc(NCCN3CCOCC3)c2c1` [CBK265655], the viability at 28.5 h, 10 µM came out at 108%.

For `CCOC(=O)c1ccc(/N=C2/NC(=O)/C(=C\c3ccccc3OCC(=O)O)S2)cc1` [CBK265658], the viability at 28.5 h, 10 µM was found to be 101%.

Regarding `O=C(O)COc1ccc(N2C(=O)c3ccc(-c4nc5ccccc5c(=O)o4)cc3C2=O)cc1` [CBK265659], the viability at 28.5 h, 10 µM was 106%.

In the case of `Cc1cccc(N2NC(=O)/C(=C/c3cccn3-c3ccc(S(N)(=O)=O)cc3)C2=O)c1` [CBK265660], the viability at 28.5 h, 10 µM is 93.9%.

For `O=C(COc1ccccc1Cl)NC(=S)Nc1cccc(C(=O)O)c1` [CBK265662], the viability at 28.5 h, 10 µM is 91.4%.

For `COc1cc(/C=C2\C(=O)N(c3ccc(NC(C)=O)cc3)N=C2c2ccccc2)ccc1O` [CBK265664], the viability at 28.5 h, 10 µM was determined as 87.5%.

`CCc1ccccc1OCC(=O)Nc1ccc([N+](=O)[O-])cc1OC` [CBK265665]: the viability at 28.5 h, 10 µM stood at 97.1%.

Still in this data set, the particulars now being: human, hela cells, % viability, bulk resorufin, single well.
For the molecule `O=C1C(=CNCCc2c[nH]c3ccccc23)C(=O)N(c2ccccc2)C(=S)N1c1ccccc1` [CBK265557], the viability at 28.5 h, 10 µM is 98.5%.

In the case of `O=C1NC(=S)N(Cc2ccco2)C(=O)/C1=C\c1ccc(-c2ccc(Cl)c(C(=O)O)c2)o1` [CBK265584], the viability at 28.5 h, 10 µM came to 90.1%.

On to `Cc1cc(/C=C2\C(=O)NC(=O)N(Cc3ccccc3Cl)C2=O)c(C)n1-c1ccc(C(=O)O)cc1` [CBK265602], for which the viability at 28.5 h, 10 µM is 84.9%.

As a reminder, the viability is a read-out of living cells in per cent, often relative to untreated cells.
